From PMC10495264 (Nature Cell Biology, 2023)
Where “and” joins values, the source holds several entries; their conditions need not be identical. Identical values can stand only once. Entries after “also recorded” stand apart in the source; their conditions may differ.

Tests used:
[1] = tested on: recombinant human MCD (Mal-CoA decarboxylase); details: read-out: apparent Michaelis constant (Km) of recombinant human MCD for Mal-CoA; cited from earlier work
[2] = target: T1, mTORC1 containing mTOR^K1218R; experiment: mTORC1 IVK with SBP-tagged mTOR^K1218R and HA–Raptor; format: biochemical, human; details: presence or absence of 5 mM Mal-CoA
T1 construct: expressed in transfected cells; host or cells: HEK293FT
Procedure: Briefly, cells of a near-confluent well of a six-well plate were lysed in CHAPS IP buffer (50 mM Tris pH 7.5, 0.3% CHAPS detergent, 150 mM NaCl, 50 mM NaF, 2 mM Na-vanadate and 0.011 g ml^−1 β-glycerophosphate) supplemented with 1×PhosSTOP phosphatase inhibitors and 1×EDTA-free cOmplete protease inhibitors for 10 min on ice, and the samples were clarified by centrifugation (20,000g, 15 min, 4 °C). Each supernatant was split in three equal fractions and each fraction was incubated (4 °C with rotation) with 20 μl of pre-washed Streptavidin Sepharose (cat. no. 90100484, Cytiva) for 1 h. The beads were then washed three times with CHAPS IP wash buffer (50 mM Tris pH 7.5, 0.3% CHAPS, 150 mM NaCl and 50 mM NaF) and either used for IVK assays (‘Mammalian mTORC1 kinase activity assays’ section) or boiled in 2×SDS loading buffer (5 min, 95 °C) and analysed by SDS–PAGE and immunoblotting to assess the stability of the mTOR complex.
In vitro activity assays were performed as described earlier for endogenous mTOR complexes.
Endogenous mTOR was immunoprecipitated in the presence or absence of 1 mM Mal-CoA (added directly in the lysates 5 min previous to addition of the antibody). Co-immunoprecipitation of Raptor and mLST8 assayed by immunoblotting; n = 2 independent experiments. c, Mal-CoA inhibits mTORC1 independently from mTOR malonylation. […] Data are the mean ± s.d. (a) or mean ± s.e.m. […]

Snf1 = tested on: T2, Snf1; experiment: Yeast Snf1 kinase activity assay (IVK, Mig1 substrate); format: biochemical, Saccharomyces cerevisiae; parameters: key to In vitro kinase assay Snf1 / In vitro kinase assay Snf1, Mean: Mig1 phosphorylation signal density relative to 0 mM Mal-CoA (=1); details: for In vitro kinase assay Snf1, Mean: 0 mM = 1; for In vitro kinase assay Snf1: Replicates 1-3, 0 mM = 1 (Ext. Fig. 10e)
T2 construct: The Snf1 complex was purified from a genomically C-terminally-tagged Snf1 yeast; TAP (C, cleaved yes); made in house; host or cells: S. cerevisiae strain Snf1-TAP (Open Biosystems)
Procedure: The Snf1 complex was purified from a genomically C-terminally-tagged Snf1 yeast cultured in YPD and washed with water before filtration to induce Snf1 activation. After filtration, the cells were frozen in liquid nitrogen and cryogenically disrupted using a Precellys homogenizer in lysis buffer (50 mM Tris–HCl pH 7.5, 150 mM NaCl, 0.1% NP-40, 10% glycerol, […] and Roche EDTA-free complete protease inhibitor). The cleared lysates were incubated with IgG-coupled Dynabeads (Dynabeads M-270 Epoxy; Invitrogen, Thermo Fisher Scientific) for 2 h at 4 °C. The beads were washed five times with lysis buffer and Snf1 was eluted through cleavage with TEV protease in elution buffer (50 mM Tris–HCl pH 7.5 and 0.5 mM EDTA) and stored at −80 °C after the addition of 10% glycerol. […] To test the effect of Mal-CoA (M4263, Sigma-Aldrich), the kinase reaction was pre-incubated with 2 μl of the compound from a 15× stock solution and threefold serial dilutions for 15 min. […] Proteins were separated by SDS–PAGE and stained with SYPRO Ruby (S4942, Sigma-Aldrich) to assess loading. Substrate phosphorylation was analysed by autoradiography using a Typhoon FLA 9500 phosphorimager (GE Healthcare) and the raw density of the signals was quantified using the gel analysis tool of ImageJ.

TORC2 = TORC2 activity in yeast cells, p-Ypk1^T662/Ypk1 immunoblot; format: cell-based, Saccharomyces cerevisiae; details: cerulenin 20 μM, 2 h; for p-Ypk1(T662)/Ypk1, Mean: wt Ctrl = 1, Fig. 3f
TORC1 = TORC1 activity in yeast cells, p-Sch9^T737/Sch9 immunoblot; format: cell-based, Saccharomyces cerevisiae; details: for p-Sch9(T737)/Sch9 (relative TORC1 activity), Mean: yeast, untreated = 1, n = 4, Fig. 2c

| Compound | Km [1] | kinase activity of mTORC1 containing non-malonylatable mTOR^K1218R [2] | In vitro kinase assay Snf1, Mean (Snf1; Mal-CoA 0.073 mM) | In vitro kinase assay Snf1 (Snf1; Mal-CoA 0.073 mM) | In vitro kinase assay Snf1, Mean (Snf1; Mal-CoA 0.22 mM) | In vitro kinase assay Snf1 (Snf1; Mal-CoA 0.22 mM) | In vitro kinase assay Snf1, Mean (Snf1; Mal-CoA 2 mM) | In vitro kinase assay Snf1 (Snf1; Mal-CoA 2 mM) | In vitro kinase assay Snf1, Mean (Snf1; Mal-CoA 6 mM) | In vitro kinase assay Snf1 (Snf1; Mal-CoA 6 mM) | In vitro kinase assay Snf1, Mean (Snf1; Mal-CoA […]) | inhibition of Snf1 in IVK assay (Snf1; purified Snf1, His-tagged Mig1 substrate, IC50 not calculated) | p-Ypk1(T662)/Ypk1, Mean (TORC2; acc1S1157A yeast) | p-Ypk1(T662)/Ypk1, Mean (TORC2; wt yeast) | phosphorylation of Ypk1^T662 (TORC2 target residue) (TORC2; yeast) | p-Sch9(T737)/Sch9, Mean (TORC1) | TORC1 activity (phosphorylation of Sch9) in vivo (TORC1; cerulenin-treated yeast, Fig. 2a,c) | p-Sch9(T737)/Sch9 (relative TORC1 activity), Mean (TORC1; 20 μM cerulenin 2h) | p-Sch9(T737)/Sch9 (relative TORC1 activity), Mean (TORC1; 20 μM cerulenin 3h) | p-Sch9(T737)/Sch9 (relative TORC1 activity), Mean (TORC1; 20 μM cerulenin 4h) |
| --- | --- | --- | --- | --- | --- | --- | --- | --- | --- | --- | --- | --- | --- | --- | --- | --- | --- | --- | --- | --- |
| CC(C)(COP(=O)(O)OP(=O)(O)OCC1OC(n2cnc3c(N)ncnc32)C(O)C1OP(=O)(O)O)C(O)C(=O)NCCC(=O)NCCSC(=O)CC(=O)O (centres unmarked) [Mal-CoA, malonyl-CoA] | 220 to 520 µM | readily inhibited | 1.243 | 0.8487 and 1.878 and 1.003 | 0.975 | 1.111 and 0.9316 and 0.8826 | 0.9179 | 1.023 and 1.058 and 0.6736 | 0.7128 | 0.7619 and 0.8143 and 0.5621 | 0.967 | does not inhibit; also recorded: did not demonstrate substantial inhibitory effects |  |  |  |  |  |  |  |  |
| C/C=C/C/C=C/CCC(=O)[C@H]1O[C@H]1C(N)=O [cerulenin] |  |  |  |  |  |  |  |  |  |  |  |  | 1.9821 | 2.002 | did not inhibit | 0.2682 and 0.4097 | strongly reduced | 0.4698 | 0.1772 | 0.1415 |
